Data published in patent publication US20240067660A1, “MACROCYCLIC SPIROCYCLE DERIVATIVES AS MCL-1 INHIBITORS” (Janssen Pharmaceutica NV, priority 2019, published 2024).
pKi: −log10 of the molar value. Like-named read-outs stand apart in the source and are kept apart here.

Key:
[1] = system: MOLP-8 human multiple myeloma cell line; assay: Caspase-Glo 3/7 assay in MOLP-8 cells; format: cell-based; settings: Caspase-Glo 3/7, 2 hours incubation, averaged over all runs on all batches, read-out: MOLP8 AC50
Text: MCL-1 is a regulator of apoptosis and is highly over-expressed in tumor cells that escape cell death. The assay evaluates the cellular potency of small-molecule compounds targeting regulators of the apoptosis pathway, primarily MCL-1, Bfl-1, Bcl-2, and other proteins of the Bcl-2 family. Protein-protein inhibitors disrupting the interaction of anti-apoptotic regulators with BH3-domain proteins initiate apoptosis.
The Caspase-Glo® 3/7 Assay is a luminescent assay that measures caspase-3 and -7 activities in purified enzyme preparations or cultures of adherent or suspension cells. The assay provides a proluminescent caspase-3/7 substrate, which contains the tetrapeptide sequence DEVD. This substrate is cleaved to release aminoluciferin, a substrate of luciferase used in the production of light. Addition of the single Caspase-Glo® 3/7 Reagent in an “add-mix-measure” format results in cell lysis, followed by caspase cleavage of the substrate and generation of a “glow-type” luminescent signal.
This assay uses the MOLP-8 human multiple myeloma cell line, which is sensitive to MCL-1 inhibition.
Cell cultures were maintained between 0.2 and 2.0×10^6 cells/mL. The cells were harvested by collection in 50 mL conical tubes. The cells were then pelleted at 500 g for 5 mins before removing supernatant and resuspension in fresh pre-warmed culture medium. The cells were counted and diluted as needed.
The assay reagent was prepared by transferring the buffer solution to the substrate vial and mixing. The solution may be stored for up to 1 week at 4° C. with negligible loss of signal.
Compounds were delivered in assay-ready plates (Proxiplate) and stored at −20° C. Assays always include 1 reference compound plate containing reference compounds. The plates were spotted with 40 nL of compounds (0.5% DMSO final in cells; serial dilution; 30 μM highest conc. 1/3 dilution, 10 doses, duplicates). The compounds were used at room temperature and 4 μL of pre-warmed media was added to all wells except column 2 and 23. The negative control was prepared by adding 1% DMSO in media. The positive control was prepared by adding the appropriate positive control compound in final concentration of 60 μM in media. The plate was prepared by adding 4 μL negative control to column 23, 4 μL positive control to column 2 and 4 μL cell suspension to all wells in the plate. The plate with cells was then incubated at 37° C. for 2 hours. The assay signal reagent is the Caspase-Glo solution described above, and 8 μL was added to all wells. The plates were then sealed and measured after 30 minutes.
The activity of a test compound was calculated as percent change in apoptosis induction as follows: […]

[2] = biological target: Myeloid Cell Leukemia 1(Mcl-1) (Homo sapiens (Human), UniProt Q07820); assay: Terbium labeled Mcl-1 HTRF binding assay with Cy5-labeled BIM BH3 peptide; settings: obtained after recalibration of the equipment; averaged values over several runs
Sequence of Myeloid Cell Leukemia 1(Mcl-1) (Q07820 whole entry): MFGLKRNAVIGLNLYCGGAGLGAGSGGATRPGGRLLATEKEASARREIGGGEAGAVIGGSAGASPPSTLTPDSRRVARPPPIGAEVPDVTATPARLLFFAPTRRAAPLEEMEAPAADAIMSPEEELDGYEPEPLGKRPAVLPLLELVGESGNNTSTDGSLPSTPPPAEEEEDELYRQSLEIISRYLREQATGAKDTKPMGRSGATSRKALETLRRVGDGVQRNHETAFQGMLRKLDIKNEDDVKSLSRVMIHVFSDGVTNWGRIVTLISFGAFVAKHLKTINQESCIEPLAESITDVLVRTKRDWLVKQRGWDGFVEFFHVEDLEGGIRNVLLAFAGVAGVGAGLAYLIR
Protocol: Terbium labeled Myeloid Cell Leukemia 1(Mcl-1) homogeneous time-resolved fluorescence (HTRF) binding assay utilizing the BIM BH3 peptide (H2N-(C/Cy5Mal) WIAQELRRIGDEFN-OH) as the binding partner for Mcl-1.
This assay evaluated inhibition of the BH3 domain: Mcl-1 interaction by measuring the displacement of Cy5-labeled BIM BH3 peptide (H2N—(C/Cy5Mal) WIAQELRRIGDEFN-OH) in the HTRF assay format.
The following assay and stock buffers were prepared for use in the assay: (a) Stock buffer: 10 mM Tris-HCl, pH=7.5+150 mM NaCl, filtered, sterilized, and stored at 4° C.; and (b) 1× assay buffer, where the following ingredients were added fresh to stock buffer: 2 mM dithiothreitol (DTT), 0.0025% Tween-20, 0.1 mg/mL bovine serum albumin (BSA). The 1×Tb-Mcl-1+Cy5 Bim peptide solution was prepared by diluting the protein stock solution using the 1× assay buffer (b) to 25 pM Tb-Mcl-1 and 8 nM Cy5 Bim peptide.
Using the Acoustic ECHO, 100 nL of 100× test compound(s) were dispensed into individual wells of a white 384-well Perkin Elmer Proxiplate, for a final compound concentration of lx and final DMSO concentration of 1%. Inhibitor control and neutral control (NC, 100 nL of 100% DMSO) were stamped into columns 23 and 24 of assay plate. Into each well of the plate was then dispensed 10 μL of the 1×Tb-Mcl-1+Cy5 Bim peptide solution. The plate was centrifuged with a cover plate at 1000 rpm for 1 minute, then incubated for 60 minutes at room temperature with plates covered.
The TR-FRET signal was read on an BMG PHERAStar FSX MicroPlate Reader at room temperature using the HTRF optic module (HTRF: excitation: 337 nm, light source: laser, emission A: 665 nm, emission B: 620 nm, integration start: 60 μs, integration time: […]).
The BMG PHERAStar FSX MicroPlate Reader was used to measure fluorescence intensity at two emission wavelengths—665 nm and 620 nm—and report relative fluorescence units (RFU) for both emissions, as well as a ratio of the emissions (665 nm/620 nm)*10,000. The RFU values were normalized to percent inhibition as follows:
% inhibition=((NC−IC)−(compound−IC))/(NC−IC))*100
where IC (inhibitor control, low signal)=mean signal of 1×Tb-MCl-1+Cy5 Bim peptide+inhibitor control or 100% inhibition of Mcl-1; NC (neutral control, high signal)=mean signal 1×Tb-MCl-1+Cy5 Bim peptide with DMSO only or 0% inhibition An 11-point dose response curve was generated to determine IC50 values (using GenData) based on the following equation:
Y=Bottom+(Top−Bottom)/(1+10^((IogIC50−X)*HillSlope))
where Y=% inhibition in the presence of X inhibitor concentration; Top=100% inhibition derived from the IC (mean signal of Mcl-1+inhibitor control); Bottom=0% inhibition derived from the NC (mean signal of Mcl-1+DMSO); Hillslope=Hill coefficient; and IC50=concentration of compound with 50% inhibition in relation to top/neutral control (NC).
In this assay [L]=8 nM and Kd=10 nM

| SMILES | AC50 [1] | pKi [2] | AC50 ([1]; Homo sapiens, MOLP-8, 2 h) |
| --- | --- | --- | --- |
| COCCOCC1(CO)/C(F)=C/C[C@H](C)[C@@H](C)S(=O)(=O)NC(=O)c2ccc3c(c2)N(C[C@@H]2CCN21)C[C@@]1(CCCc2cc(Cl)ccc21)CO3 (single isomer, unassigned) [Compound 42] | 730 nM | 9.05 | – |
| C[C@@H]1[C@@H](C)C/C=C(\F)C(CO)(CO)N2CCC[C@H]2CN2C[C@@]3(CCCc4cc(Cl)ccc43)COc3ccc(cc32)C(=O)NS1(=O)=O [Compound 35] | – | 9.85 | 547 nM |
| C[C@@H]1[C@@H](C)C/C=C(\F)[C@H](CN2CCN3CCOC[C@@H]3C2)N2CC[C@H]2CN2C[C@@]3(CCCc4cc(Cl)ccc43)COc3ccc(cc32)C(=O)NS1(=O)=O [Compound 28] | – | 10.05 | 120 nM |
| COCC1(CO)/C(F)=C/C[C@H](C)[C@@H](C)S(=O)(=O)NC(=O)c2ccc3c(c2)N(C[C@@H]2CCN21)C[C@@]1(CCCc2cc(Cl)ccc21)CO3 (single isomer, unassigned) [Compound 38] | 152 nM | 9.82 | – |
| COCC1(CO)/C(F)=C/C[C@H](C)[C@@H](C)S(=O)(=O)NC(=O)c2ccc3c(c2)N(C[C@@H]2CCN21)C[C@@]1(CCCc2cc(Cl)ccc21)CO3 (single isomer, unassigned) [Compound 39] | 630 nM | 8.74 | – |
| COCCOCC1(CO)/C(F)=C/C[C@H](C)[C@@H](C)S(=O)(=O)NC(=O)c2ccc3c(c2)N(C[C@@H]2CCN21)C[C@@]1(CCCc2cc(Cl)ccc21)CO3 (single isomer, unassigned) [Compound 40] | 194 nM | 9.80 | – |
| C[C@@H]1[C@@H](C)C/C=C(\F)C(CO)(CO)N2CC[C@H]2CN2C[C@@]3(CCCc4cc(Cl)ccc43)COc3ccc(cc32)C(=O)NS1(=O)=O [Compound 36] | – | 9.64 | 2390 nM |
